Measurements as given in patent publication US20230277669A1, “USES OF UROLITHINS” (Amazentis SA, priority 2022, published 2023).

Tested on: CD8+ T cells
Experiment: In vitro stimulation of CD3+ T cells with aCD3/aCD28 beads in presence of UA
Format: cell-based, FVB mice
Conditions: 48 h, ICG001 with UA
Method: (FIG. 2A) Scheme of CD3+ T-cell activation and analysis for various timepoints. (FIG. 2B) Reduced effector molecule expression on in vitro treated cells (n=3 pooled from three independent experiments). Isolated T-cells were stimulated for 48 h at the presence of UA or DMSO in the indicated doses. Data are mean ± SD, *p < 0.05 by two-sided t-test. (FIG. 2C) Reduced effector molecule expression on in vitro treated cells (n=3 pooled from three independent experiments). Isolated T-cells were stimulated for 48 h at the presence of UA or DMSO in the indicated doses. Data are mean ± SD, *p < 0.05 by two-sided t-test. (FIG. 2D) Quantification of T memory stem cells (TSCM: CD44^-CD62L^+Sca1^hi) after 24 h, 48 h and 96 h post stimulation with aCD3/aCD28 stimulation beads as indicated in (A) (n=4 pooled from four independent experiments). Data are mean ± SD, statistical analysis was performed via two-sided t-test (*p < 0.05; **p < 0.01; n.s. not significant). (FIG. 2E) Mitochondrial membrane potential within naïve CD62L^+CD44^-CD8^+ T cells, with TMRM^lo representing cells with low mitochondrial membrane potential. Cells were stimulated for 48 h as depicted in (A). Data are mean ± SD, n=4; ***p <0.001 by two-sided t-test. Experiment was repeated twice in independent experiments. (FIG. 2F) Representative histogram and quantification of memory marker CD95 expression in CD62L^+CD44^-CD8^+ cells, 48 hours after in vitro stimulation. Data are mean ± SD; n=5; ****p < 0.0001 by two-sided t-test. Data depicts one of two independent experiments. (FIG. 2G) Analysis of TIL of UA-fed mice, treated as depicted in FIG. 1J. Percentage of TSCM within CD8+ (G; n=7), as well as TCF1 (H; n=7) PD1^hi,Tim3^hi and CTLA4hi (I-K, all n=6) in the TIL CD8+ population are shown. Data are mean ± SD, statistical analysis was performed via two-sided t-test (*p < 0.05; **p < 0.01;, ***p <0.001.). Data depicts one of two independent experiments. (FIG. 2H) The same experiment as FIG. 2G with TCF1 (n=7) in the TIL CD8+ population. (FIG. 2I) The same experiment as FIG. 2G with PD1^hi (n=6) in the TIL CD8+ population. (FIG. 2J) The same experiment as FIG. 2G with Tim3^hi (n=6) in the TIL CD8+ population. (FIG. 2K) The same experiment as FIG. 2G with CTLA4hi (n=6) in the TIL CD8+ population. (FIG. 2L) Flow cytometry readout of ex vivo cytokine release of previously isolated TIL upon re-stimulation with PMA/ionomycin. Data are mean ± SD with n=7 per group. Statistical analysis was performed by two-sided t-test (**p < 0.01). One out of two independent experiments are shown. (FIG. 2M) Flow cytometry readout of ex vivo cytokine release of previously isolated TIL upon re-stimulation with PMA/ionomycin. Data are mean ± SD with n=7 per group. Statistical analysis was performed by two-sided t-test (**p < 0.01). One out of two independent experiments are shown.
(FIG. 4A) Scheme of CD3+ T-cell activation and analysis for various timepoints in order to investigate mitophagy induction in vitro. (FIG. 4B) Analysis of mitochondrial membrane potential within CD8+ T cells, with TMRM^lo representing cells with low mitochondrial membrane potential. Analysis was performed six hours after stimulation with aCD/aCD28 stimulation beads at the presence of the indicated treatments. N=4 per group, *p < 0.05 by Mann Whitney U test. One of two independent experiments are shown. (FIG. 4C) Representative flow histogram and quantification of lysosome formation in CD8+ cells six hours after in vitro stimulation. MFI shown relative to DMSO controls, n=4. Data are normalised mean ± SD, statistical analysis by two-sided t-test. One out of two independent experiments are shown. (FIG. 4D) Mitotracker Red staining of in vitro stimulated CD8+ cells after 24 hours of Urolithin A (UA25 n=6; UA50 n=6) or vehicle control treatment (DMSO: n=4). A representative flow histogram depicting identification of Mitotracker^hi cells is shown. […]

## O=C1[C@H](Cc2ccc(O)cc2)N2C(=O)CCN(C(=O)NCc3ccccc3)[C@H]2CN1Cc1cccc2ccccc12 [ICG001, reference compound]
  UA-induced TCF1 expression: abrogated
  UA-induced TSCM formation: abrogated
